Data: ChEMBL document CHEMBL1201862, “PubChem BioAssay data set” (2004)
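Each compound was tested at five concentrations against cells in 96-well plates for 48 hours. Abbreviation: GI50, concentration required for 50% inhibition of growth.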 Active and inactive are the calls of the source. Rule as the data show it: active = GI50 up to about 1.1 µM and inactive = higher.

Experiments:
Assay in all cases: NCI anticancer screen, dose series, 48 h
SK-MEL-2 = tested on: SK-MEL-2
CAKI-1 = tested on: CAKI-1
M14 = tested on: M14
OVCAR-8 = tested on: OVCAR-8
XF498 = tested on: XF498
LOX IMVI = tested on: LOX IMVI
HCC 2998 = tested on: HCC 2998
HL-60 = tested on: HL-60
SW-620 = tested on: SW-620
KM-20L2 = tested on: KM-20L2
HT-29 = tested on: HT-29
K562 = tested on: K562
RPMI-8226 = tested on: RPMI-8226
OVCAR-4 = tested on: OVCAR-4
LXFL 529 = tested on: LXFL 529
SK-MEL-28 = tested on: SK-MEL-28
CCRF-CEM = tested on: CCRF-CEM
COLO 205 = tested on: COLO 205
A549 = tested on: A549
EKVX = tested on: EKVX
NCI-H522 = tested on: NCI-H522
SK-OV-3 = tested on: SK-OV-3
NCI-H23 = tested on: NCI-H23
786-0 = tested on: 786-0
RXF 393 = tested on: RXF 393
SNB-75 = tested on: SNB-75
UO-31 = tested on: UO-31
MOLT-4 = tested on: MOLT-4
SN12C = tested on: SN12C
NCI-H226 = tested on: NCI-H226
SK-MEL-5 = tested on: SK-MEL-5
SF-268 = tested on: SF-268
ACHN = tested on: ACHN
DMS-114 = tested on: DMS-114
Malme-3M = tested on: Malme-3M
NCI-H460 = tested on: NCI-H460
KM12 = tested on: KM12
HOP-92 = tested on: HOP-92
OVCAR-5 = tested on: OVCAR-5
UACC-257 = tested on: UACC-257
DMS-273 = tested on: DMS-273
SNB-78 = tested on: SNB-78
OVCAR-3 = tested on: OVCAR-3
HOP-18 = tested on: HOP-18
SNB-19 = tested on: SNB-19
SF-295 = tested on: SF-295
TK-10 = tested on: TK-10
DLD-1 = tested on: DLD-1
HOP-62 = tested on: HOP-62
HCT-15 = tested on: HCT-15
U-251 = tested on: U-251

With `O=C(CC1(O)C(=O)Nc2c(Cl)cc(Cl)cc21)c1ccco1` (stereo unspecified) the GI50 (SK-MEL-2) was 60.7 µM (inactive), the GI50 (CAKI-1) was 45 µM (inactive) and the GI50 (M14) was 54 µM (inactive). The GI50 (OVCAR-8) was 37.4 µM (inactive), the GI50 (XF498) was 25.1 µM (inactive) and the GI50 (LOX IMVI) was 33.1 µM (inactive). For the same compound, the GI50 (HCC 2998) was 48.8 µM (inactive), the GI50 (HL-60) was 20.8 µM (inactive) and the GI50 (SW-620) was 50.4 µM (inactive). The GI50 (KM-20L2) was 48.3 µM (inactive), the GI50 (HT-29) was 52.7 µM (inactive) and the GI50 (K562) was 30.3 µM (inactive). The GI50 (RPMI-8226) was 23.1 µM (inactive), the GI50 (OVCAR-4) was 15.7 µM (inactive) and the GI50 (LXFL 529) was 37.8 µM (inactive). For the same compound, the GI50 (SK-MEL-28) was > 100 µM (inactive), the GI50 (CCRF-CEM) was 24.3 µM (inactive) and the GI50 (COLO 205) was > 100 µM (inactive). The GI50 (A549) was > 100 µM (inactive), the GI50 (EKVX) was 59.2 µM (inactive) and the GI50 (NCI-H522) was 62.5 µM (inactive). The GI50 (SK-OV-3) was > 100 µM (inactive), the GI50 (NCI-H23) was 56.1 µM (inactive) and the GI50 (786-0) was 23.7 µM (inactive). For the same compound, the GI50 (RXF 393) was 78 µM (inactive), the GI50 (SNB-75) was 29 µM (inactive) and the GI50 (UO-31) was 98.2 µM (inactive). For the same compound, the GI50 (MOLT-4) was 15.4 µM (inactive), the GI50 (SN12C) was 63.8 µM (inactive) and the GI50 (NCI-H226) was 23.3 µM (inactive). The GI50 (SK-MEL-5) was 77.6 µM (inactive), the GI50 (SF-268) was 50 µM (inactive) and the GI50 (ACHN) was 83.6 µM (inactive). For the same compound, the GI50 (DMS-114) was 22.8 µM (inactive), the GI50 (Malme-3M) was > 100 µM (inactive) and the GI50 (NCI-H460) was 65.6 µM (inactive). For the same compound, the GI50 (KM12) was 32.7 µM (inactive), the GI50 (HOP-92) was 36.6 µM (inactive) and the GI50 (OVCAR-5) was > 100 µM (inactive). For the same compound, the GI50 (UACC-257) was > 100 µM (inactive), the GI50 (DMS-273) was 38.8 µM (inactive) and the GI50 (SNB-78) was 26.9 µM (inactive). The GI50 (OVCAR-3) was 21.2 µM (inactive), the GI50 (HOP-18) was 55.7 µM (inactive) and the GI50 (SNB-19) was > 100 µM (inactive). For the same compound, the GI50 (SF-295) was 32 µM (inactive), the GI50 (TK-10) was 88.1 µM (inactive) and the GI50 (DLD-1) was 49.3 µM (inactive). For the same compound, the GI50 (HOP-62) was 60.1 µM (inactive), the GI50 (HCT-15) was 40.5 µM and the GI50 (U-251) was > 100 µM (inactive).
